Patent US20190192699A1, “NUCLEAR IMAGING AND RADIOTHERAPEUTICS AGENTS TARGETING CARBONIC ANHYDRASE IX AND USES THEREOF” (THE JOHNS HOPKINS UNIVERSITY, priority 2016, published 2019)

System: SK-RC-52 xenografts
Experiment: Biodistribution of [111In]XYIMSR-01 and [177Lu]XYIMSR-01
Format: in vivo, mice
Protocol: Cell Lines and Mouse Models. Animal experiments were performed in accordance with protocols approved by the Johns Hopkins Animal Care and Use Committee (ACUC). Six-week-old female NOD/SCID mice were purchased from the Animal Resource Core of the Sidney Kimmel Comprehensive Cancer Center of Johns Hopkins and were subcutaneously injected in the lower left flank or upper right flank with 1×10^6 SK-RC-52 cells in RPMI 1640 GlutaMAX™ media (Life Technologies, Frederick, Md.) supplemented with 1% fetal bovine serum (FBS). Mice were monitored for tumor size and used for SPECT/CT imaging when the size of the tumor reached 100 mm^3.
Biodistribution of [^111In]XYIMSR-01 and [^177Lu]XYIMSR-01. Mice bearing SK-RC-52 xenografts at lower left flank were injected intravenously with 740 kBq (20 μCi) of [^111In]XYIMSR-01, or [^177Lu]XYIMSR-01 in 200 μL of PBS. For competitive blocking, same tumor bearing mice were injected with 740 kBq (20 μCi) of [^111In]XYIMSR-01 and 200 nmole of 1 in 200 μL of PBS. At 1 h, 4 h, 8 h, 24 h and 48 h post-injection, mice were sacrificed by cervical dislocation and the blood was immediately collected by cardiac puncture. Heart, lungs, pancreas, spleen, fat, brain, muscle, small intestines, liver, stomach, kidney, urinary bladder, and tumor were collected. Each organ was weighed and the tissue radioactivity was measured with an automated gamma counter (1282 Compugamma CS, Pharmacia/LKBNuclear, Inc., Mt. Waverly, Vic. Australia). The percentage of injected dose per gram of tissue (% ID/g) was calculated by comparison with samples of a standard dilution of the initial dose. All measurements were corrected for radioactive decay.
Data were expressed as mean±standard deviation (SD). Prism software (GraphPAD, San Diego, Calif.) was used to determine statistical significance. Statistical significance was calculated using a paired t test. P-values […] were considered significant.

[1] = 24 hr + Block (200 nmole of 1 co-injected)
[2] = 48 hr + Block (200 nmole of 1 co-injected)

SMILES: CC(CCC(=O)N[C@@H](CC(=O)N[C@@H](CC(=O)N[C@@H](CCCCn1cc(CCCC(=O)Nc2nnc(S(N)(=O)=O)s2)nn1)C(=O)NCCOCCOCCNC(=O)CN1CCN(CC(=O)[O-])CCN(CC(=O)[O-])CCN(CC(=O)[O-])CC1)C(=O)O)C(=O)O)(c1ccc(O)cc1)c1ccc(O)cc1.[177Lu+3] [[^177Lu]XYIMSR-01]
- Biodistribution: Lung [1]: 0.73 ± 0.58 % ID/g
- Biodistribution: Muscle [1]: 0.03 ± 0.01 % ID/g
- Biodistribution: Pancreas [1]: 0.05 ± 0.03 % ID/g
- Biodistribution: Small intestine [1]: 0.18 ± 0.07 % ID/g
- Biodistribution: Spleen [1]: 0.38 ± 0.32 % ID/g
- Biodistribution: Stomach [1]: 0.21 ± 0.07 % ID/g
- Biodistribution: Tumor [1]: 1.70 ± 0.79 % ID/g
- Tumor/Blood ratio [1]: 42.0 ± 20.9
- Tumor/Kidney ratio [1]: 1.4 ± 0.6
- Tumor/Muscle ratio [1]: 58.6 ± 25.3
- Biodistribution: Bladder (24 hr post-injection): 1.29 ± 1.10 % ID/g
- Biodistribution: Blood (24 hr post-injection): 0.02 ± 0.01 % ID/g
- Biodistribution: Brain (24 hr post-injection): 0.28 ± 0.10 % ID/g
- Biodistribution: Fat (24 hr post-injection): 0.05 ± 0.04 % ID/g
- Biodistribution: Heart (24 hr post-injection): 0.28 ± 0.14 % ID/g
- Biodistribution: Kidney (24 hr post-injection): 3.11 ± 1.59 % ID/g
- Biodistribution: Liver (24 hr post-injection): 0.47 ± 0.21 % ID/g
- Biodistribution: Lung (24 hr post-injection): 1.48 ± 0.59 % ID/g
- Biodistribution: Muscle (24 hr post-injection): 0.10 ± 0.05 % ID/g
- Biodistribution: Pancreas (24 hr post-injection): 0.16 ± 0.07 % ID/g
- Biodistribution: Small intestine (24 hr post-injection): 0.96 ± 0.32 % ID/g
- Biodistribution: Spleen (24 hr post-injection): 0.20 ± 0.07 % ID/g
- Biodistribution: Stomach (24 hr post-injection): 1.02 ± 0.56 % ID/g
- Biodistribution: Tumor (24 hr post-injection): 12.51 ± 3.02 % ID/g
- Tumor/Blood ratio (24 hr post-injection): 607.4±200.7
- Tumor/Kidney ratio (24 hr post-injection): 4.5±1.4
- Tumor/Muscle ratio (24 hr post-injection): 128.4±25.4
- Biodistribution: Bladder [2]: 0.28 ± 0.09 % ID/g
- Biodistribution: Blood [2]: 0.04 ± 0.07 % ID/g
- Biodistribution: Brain [2]: 0.02 ± 0.00 % ID/g
- Biodistribution: Fat [2]: 0.02 ± 0.01 % ID/g
- Biodistribution: Heart [2]: 0.04 ± 0.01 % ID/g
- Biodistribution: Kidney [2]: 0.39 ± 0.05 % ID/g
- Biodistribution: Liver [2]: 0.23 ± 0.04 % ID/g
- Biodistribution: Lung [2]: 0.18 ± 0.05 % ID/g
- Biodistribution: Muscle [2]: 0.01 ± 0.00 % ID/g
- Biodistribution: Pancreas [2]: 0.02 ± 0.00 % ID/g
- Biodistribution: Small intestine [2]: 0.05 ± 0.01 % ID/g
- Biodistribution: Spleen [2]: 0.15 ± 0.06 % ID/g
- Biodistribution: Stomach [2]: 0.09 ± 0.02 % ID/g
- Biodistribution: Tumor [2]: 0.65 ± 0.10 % ID/g
- Tumor/Blood ratio [2]: 42.7 ± 23.7
- Tumor/Kidney ratio [2]: 1.7 ± 0.3
- Tumor/Muscle ratio [2]: 62.5 ± 34.5
- Biodistribution: Bladder (48 hr post-injection): 0.20 ± 0.01 % ID/g
- Biodistribution: Blood (48 hr post-injection): 0.04 ± 0.01 % ID/g
- Biodistribution: Brain (48 hr post-injection): 0.17 ± 0.03 % ID/g
- Biodistribution: Fat (48 hr post-injection): 0.03 ± 0.01 % ID/g
- Biodistribution: Heart (48 hr post-injection): 0.12 ± 0.17 % ID/g
- Biodistribution: Kidney (48 hr post-injection): 0.76 ± 0.11 % ID/g
- Biodistribution: Liver (48 hr post-injection): 0.19 ± 0.03 % ID/g
- Biodistribution: Lung (48 hr post-injection): 0.90 ± 0.05 % ID/g
- Biodistribution: Muscle (48 hr post-injection): 0.04 ± 0.01 % ID/g
- Biodistribution: Pancreas (48 hr post-injection): 0.06 ± 0.01 % ID/g
- Biodistribution: Small intestine (48 hr post-injection): 0.20 ± 0.05 % ID/g
- Biodistribution: Spleen (48 hr post-injection): 0.13 ± 0.04 % ID/g
- Biodistribution: Stomach (48 hr post-injection): 0.35 ± 0.04 % ID/g
- Biodistribution: Tumor (48 hr post-injection): 5.82 ± 2.14 % ID/g
- Tumor/Blood ratio (48 hr post-injection): 200.2 ± 101.7
- Tumor/Kidney ratio (48 hr post-injection): 7.1 ± 1.8
- Tumor/Muscle ratio (48 hr post-injection): 141.5 ± 71.7
